Test results from patent US8759504B2, “Cholinergic/serotoninergic receptor and uses thereof” (AbbVie Inc., priority 2007, dated 2014).
Entries after “also recorded” stand apart in the source; their conditions may differ. Like-named read-outs stand apart in the source and are kept apart here.

Tests used:
Chimera 1 [1] = biological target: T1, Chimera 1 (Homo sapiens, UniProt P36544, M226I/T225V); test: Two electrode voltage clamp in Xenopus oocytes (POETs), agonist and modulator responses; format: cell-based; set-up: expressed in transfected cells; host or cells: Xenopus laevis oocytes (transient, A1)
Chimera 1 [2] = biological target: T1, Chimera 1; test: Membrane potential imaging (FLIPR-FMP) in HEK-293 cells; format: cell-based; set-up: expressed in transfected cells; details: for Modulation of submaximum agonist-evoked membrane potential response (words): HEK-293 cells, FMP
Chimera 2 [3] = biological target: T2, Chimera 2 (Homo sapiens, UniProt P36544, M226I/T225V); test: Two electrode voltage clamp in Xenopus oocytes (POETs), agonist and modulator responses; format: cell-based; set-up: expressed in transfected cells; host or cells: Xenopus laevis oocytes (transient, A2)
[4] = biological target: T3, rat brain α7* nicotinic acetylcholine receptors (Rattus norvegicus, UniProt Q05941); test: [3H]A-585539 radioligand binding, rat brain homogenates; details: rat cortex, increasing concentrations
T3 construct: expressed both as a native (rat cortex) or α7/5-HT3 chimeric receptor; from tissue; host or cells: rat brain / rat cortex homogenates

[5] = biological target: T4, wild-type human 5-HT3A receptors (Homo sapiens, UniProt P46098); test: Two electrode voltage clamp in Xenopus oocytes, agonist and modulator responses; format: cell-based
T4 construct: expressed in transfected cells; host or cells: Xenopus laevis oocytes
T4 sequence (P46098 1-484 isoform P46098-4): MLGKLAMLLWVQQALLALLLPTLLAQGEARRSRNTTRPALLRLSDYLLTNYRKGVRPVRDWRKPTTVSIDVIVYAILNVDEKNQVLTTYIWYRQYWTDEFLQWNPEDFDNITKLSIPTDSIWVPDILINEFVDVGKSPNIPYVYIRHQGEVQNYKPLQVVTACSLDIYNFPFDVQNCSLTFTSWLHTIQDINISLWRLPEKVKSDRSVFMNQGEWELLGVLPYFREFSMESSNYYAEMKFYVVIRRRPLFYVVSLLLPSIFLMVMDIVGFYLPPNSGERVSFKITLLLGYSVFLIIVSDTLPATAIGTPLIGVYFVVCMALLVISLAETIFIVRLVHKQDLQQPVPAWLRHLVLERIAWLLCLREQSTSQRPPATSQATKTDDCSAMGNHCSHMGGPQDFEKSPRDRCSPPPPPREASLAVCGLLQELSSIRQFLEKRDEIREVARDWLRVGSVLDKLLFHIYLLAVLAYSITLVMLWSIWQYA

Chimera 2 [6] = biological target: T2, Chimera 2; test: Membrane potential imaging (FLIPR-FMP) in HEK-293 cells; format: cell-based; set-up: expressed in transfected cells; details: for Modulation of submaximum agonist-evoked membrane potential response (words): HEK-293 cells, FMP
[7] = biological target: T5, wild-type α7 nicotinic acetylcholine receptor (Homo sapiens, UniProt P36544); test: Two electrode voltage clamp in Xenopus oocytes, agonist and modulator responses; format: cell-based
T5 construct: expressed in transfected cells; host or cells: Xenopus laevis oocytes

Chimera 2 [8] = biological target: T2, Chimera 2; test: Whole cell patch clamp in HEK-293 cells; format: cell-based; set-up: expressed in transfected cells
Chimera 2 [9] = biological target: T2, Chimera 2; test: [3H]A-585539 radioligand binding, HEK-293 membranes/homogenates; set-up: expressed in transfected cells; details: increasing concentrations

T2 sequence (P36544 with tags, fused parts or gaps T225V/M226I): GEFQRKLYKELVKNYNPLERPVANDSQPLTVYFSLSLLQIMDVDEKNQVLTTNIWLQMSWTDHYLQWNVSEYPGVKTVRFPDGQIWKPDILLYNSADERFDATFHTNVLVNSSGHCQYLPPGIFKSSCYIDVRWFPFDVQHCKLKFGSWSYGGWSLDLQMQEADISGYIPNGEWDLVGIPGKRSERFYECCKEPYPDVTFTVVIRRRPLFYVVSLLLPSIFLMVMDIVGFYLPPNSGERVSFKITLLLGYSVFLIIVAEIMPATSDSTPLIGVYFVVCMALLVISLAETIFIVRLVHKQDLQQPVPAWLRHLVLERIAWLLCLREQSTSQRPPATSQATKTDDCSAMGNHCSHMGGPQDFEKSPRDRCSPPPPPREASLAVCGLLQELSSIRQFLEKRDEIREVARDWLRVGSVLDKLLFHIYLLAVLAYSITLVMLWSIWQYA
T5 sequence (P36544 23-502): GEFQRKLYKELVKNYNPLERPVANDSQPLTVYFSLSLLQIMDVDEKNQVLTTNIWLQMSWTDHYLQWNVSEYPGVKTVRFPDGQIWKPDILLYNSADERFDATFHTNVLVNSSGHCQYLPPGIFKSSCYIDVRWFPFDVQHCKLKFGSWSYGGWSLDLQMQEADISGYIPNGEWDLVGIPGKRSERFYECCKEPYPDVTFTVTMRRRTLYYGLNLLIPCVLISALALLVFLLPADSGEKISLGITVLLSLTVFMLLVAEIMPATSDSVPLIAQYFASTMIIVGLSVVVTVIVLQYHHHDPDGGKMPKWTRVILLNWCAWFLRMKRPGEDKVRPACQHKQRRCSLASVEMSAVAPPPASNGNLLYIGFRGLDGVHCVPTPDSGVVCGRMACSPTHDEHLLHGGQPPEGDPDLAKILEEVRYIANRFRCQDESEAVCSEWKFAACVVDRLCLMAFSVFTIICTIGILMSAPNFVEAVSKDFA
T1 sequence (P36544 with tags, fused parts or gaps T225V/M226I): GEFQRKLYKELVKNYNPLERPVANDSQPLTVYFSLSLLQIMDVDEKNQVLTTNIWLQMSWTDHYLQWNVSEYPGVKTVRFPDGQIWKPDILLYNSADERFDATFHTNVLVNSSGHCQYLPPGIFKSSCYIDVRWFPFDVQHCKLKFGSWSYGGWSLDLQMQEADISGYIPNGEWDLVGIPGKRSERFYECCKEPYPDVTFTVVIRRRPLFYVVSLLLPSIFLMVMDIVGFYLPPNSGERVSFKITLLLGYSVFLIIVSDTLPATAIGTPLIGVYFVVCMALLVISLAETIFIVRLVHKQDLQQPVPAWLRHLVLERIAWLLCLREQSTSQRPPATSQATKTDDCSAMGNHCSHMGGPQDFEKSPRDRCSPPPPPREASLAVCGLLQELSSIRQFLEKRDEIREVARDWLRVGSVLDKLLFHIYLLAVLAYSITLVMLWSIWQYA
T3 sequence (Q05941 23-502): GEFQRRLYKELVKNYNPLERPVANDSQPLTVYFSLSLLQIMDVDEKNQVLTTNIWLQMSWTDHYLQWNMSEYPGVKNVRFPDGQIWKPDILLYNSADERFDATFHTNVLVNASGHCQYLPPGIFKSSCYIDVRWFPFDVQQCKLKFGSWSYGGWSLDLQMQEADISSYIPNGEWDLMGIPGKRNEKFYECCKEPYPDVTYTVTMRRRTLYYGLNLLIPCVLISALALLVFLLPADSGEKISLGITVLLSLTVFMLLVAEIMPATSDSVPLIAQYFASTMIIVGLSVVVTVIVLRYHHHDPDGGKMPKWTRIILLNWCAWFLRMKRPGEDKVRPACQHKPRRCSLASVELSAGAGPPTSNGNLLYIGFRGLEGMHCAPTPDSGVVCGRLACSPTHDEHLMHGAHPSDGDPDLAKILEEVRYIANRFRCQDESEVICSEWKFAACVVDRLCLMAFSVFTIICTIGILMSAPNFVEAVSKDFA

## Oc1ccc2[nH]ccc2c1 [5-HI, 5-hydroxyindole]
Chimera 1 [1]; 100 μM ACh
  Percentage potentiation of submaximum agonist-evoked responses (mean±S.E.M.): 428±23%
Chimera 1 [1]; 1 mM 5-HI
  ng of ACh curve after modulator: 1.4 ± 0.13
Chimera 1 [1]; Xenopus oocytes
  Effect of modulator on ACh-evoked current (words): positive modulation is still observed
Chimera 1 [1]; read-out: Positive allosteric modulation potency, two electrode voltage clamp: EC50 (95% C.I.), submaximum ACh (100 μM)-evoked response
  EC50: 500 µM
Chimera 1 [2]
  Modulation of submaximum agonist-evoked membrane potential response (words): potentiated the submaximum α7 agonist (NS6784) evoked membrane potential depolarization; also recorded: effective in both Chimeras
Chimera 1 [2]; listed as 5-hydroxyindole
  Modulation of submaximum agonist-evoked membrane potential response (words): able to potentiate both Chimeras
Chimera 1 [2]; read-out: FMP imaging: positive allosteric modulation EC50 (95% C.I.), submaximum NS6784 (120-200 nM)
  EC50: 234 µM
Chimera 1 [2]; submaximum NS6784 120-200 nM
  Maximum positive allosteric modulation efficacy: 204±9%
Chimera 2 [3]; 1 mM
  Peak current amplitude evoked by compound alone, normalized to 10 μM ACh: 5.4+/−1.8%
Chimera 2 [3]; 1 mM 5-HI
  ng of ACh curve after modulator: 1.35 ± 0.25
Chimera 2 [3]; 3 mM
  Peak current amplitude evoked by compound alone, normalized to 10 μM ACh: 37.8+/−11.6%
Chimera 2 [3]; 10-30 μM ACh
  Percentage potentiation of submaximum agonist-evoked responses (mean±S.E.M.): 262±39%
Chimera 2 [3]; Xenopus oocytes
  Direct current activation by modulator alone: could also evoke responses in Chimera 2; also recorded: evoked unique agonist-like current
Chimera 2 [3]; read-out: Positive allosteric modulation potency, two electrode voltage clamp: EC50 (95% C.I.), submaximum ACh (10-30 μM)-evoked response
  EC50: 496 µM
[4]
  Competition / displacement of [3H]A-585539 binding: neither compound effectively displaced the binding
[5]; 1-3 μM 5-HT
  Percentage potentiation of submaximum agonist-evoked responses (mean±S.E.M.): 58±9%
[5]; Xenopus oocytes
  Effect of modulator on agonist (5-HT)-evoked current: Neither compound increased the responses
[5]; at 10,000 μM (10 mM), read-out: Observed % inhibitory effect on submaximum 5-HT-evoked response
  inhibition at 10000 µM: ~40%
Chimera 2 [6]
  Modulation of submaximum agonist-evoked membrane potential response (words): potentiated submaximum NS6784 evoked responses; also recorded: effective as positive allosteric modulators; also recorded: effective in both Chimeras
Chimera 2 [6]; listed as 5-hydroxyindole
  Modulation of submaximum agonist-evoked membrane potential response (words): able to potentiate both Chimeras
Chimera 2 [6]; read-out: FMP imaging: positive allosteric modulation EC50 (95% C.I.), submaximum NS6784 (60-70 nM)
  EC50: 324 µM
Chimera 2 [6]; submaximum NS6784 60-70 nM
  Maximum positive allosteric modulation efficacy: 177±8%
[7]
  EC50: 667 µM
[7]; 100 μM ACh
  Percentage potentiation of submaximum agonist-evoked responses (mean±S.E.M.): 516±59%
[7]; 1 mM 5-HI
  ng of ACh curve after modulator: 1.97 ± 0.84
[7]; Positive allosteric modulation potency, two electrode voltage clamp: EC50 (95% C.I.), submaximum ACh (100 μM)-evoked response
  EC50: 500 to 700 µM
[7]; Xenopus oocytes
  Effect of modulator on ACh-evoked current (words): substantial increase in the amplitude of the subsequent ACh-evoked current
Chimera 2 [8]; 10 mM
  Directly evoked peak response normalized to 100 μM ACh: 26.4±7.1%
  Directly evoked total charge (integral) normalized to 100 μM ACh: 52.4±10.3%
Chimera 2 [8]; genistein 100 μM, 5-HI 10 mM
  Direct current activation by modulator alone: Qualitatively similar responses were also obtained
Chimera 2 [8]; genistein 30-50 μM, 5-HI 1 mM
  Positive allosteric modulation of ACh-evoked current: effective as positive allosteric modulators
Chimera 2 [9]
  Competition / displacement of [3H]A-585539 binding: neither compound effectively displaced the binding
